{"source": "patent US5859032A", "about": "“Pyridine derivative, anti-ulcer drug, and antibacterial drug” (priority 1996, dated 1999)", "key": {"[1]": {"experiment": "MTT: Cell Damaging and Protecting Effect Test", "type": "cell-based, Japanese White rabbit", "settings": "rabbit, gastric mucosa cells, 10^-4 M, 37° C., smaller value is better, read-out: MTT: cell damaging rate", "excerpt": "MTT: Cell Damaging and Protecting Effect Test\nIt is confirmed that there is no toxicity in cell level. Those having a toxicity in cell level are inappropriate as an anti-ulcer drug.\nA male Japanese White rabbit (2.5 to 3 kg) was anesthetized to death by Nembutal™ and, immediately thereafter, its stomach was removed. The greater curvature of the stomach was incised so as to remove the stomach contents therefrom. After the mucosal surface was washed with HBSS (Hanks' Balanced Salt Solution), the stomach in ice-cooled HBSS was transferred to a laboratory. Then, after the pyloric antrum was removed, the gastric corpus mucosa was separated by a spatula and then minced into 2 to 3 mm^3 pieces in BME (Basal Medium Eagle). Thereafter, these pieces were shaken at 120 to 130 cycles/minute for 15 minutes at 37° C. in BME 60 ml containing 280 U/ml of dispase and 30 to 50 U/ml of collagenase. Here, the concentration of collagenase was appropriately changed for each lot in view of the state of cells. The pieces were washed twice with EBSS (Earle's Balanced Salt Solution) containing 1 mM of EDTA and then shaken in MEM (Minimum Essential Medium) containing 1 mM of EDTA at 37° C. for 5 minutes. Subsequently, they were shaken in the dispase and collagenase having the same concentrations as those mentioned above for 15 minutes so as to remove the supernatant and then further shaken at 37° C. for 50 to 60 minutes at 120 to 130 cycles/minute. Then, after being washed twice with HBSS, Ham F12 containing 2% of Ultrocer GT™ was used to attain the concentration of 1×10^6 cells/ml. Thus formed suspension was dispensed in each well of a 96-well plate by 200 μl. The plate was incubated in the atmosphere composed of 5% CO2 and 95% air at 37° C. for three days so as to attain a confluent state and then subjected to MTT assay.\nThe sample compound was dissolved in DMSO so as to attain a concentration of 10^-2 M and then diluted with HBSS containing 2% of Ultrocer G™ so as to attain a final concentration of 10^-4 M. To each group, which 8 wells were used for, 10 μl of MTT reagent was added immediately after 100 μl of the medium in each well was exchanged for same volume of the resulting solution of the sample compound. After being incubated in an atmosphere composed of 5% CO2 and 95% air at 37° C. for 4 hours, thus formed solution was centrifuged and then its supernatant was discarded. Subsequently, 100 μl of 100% ethanol was added to the residue so as to dissolve MTT formazan. Then, the absorbance (OD: 570 to 630) was measured by a microplate reader. This method utilizes a phenomenon in which MTT is changed to MTT formazan only by mitochondria of living cells so as to change color.\nThe cell damaging or cell protecting effect of the sample compound at the final concentration of 10^-4 M was expressed as cell damaging rate (%) as follows:\ncell damaging rate (%)=(1-(absorbance in sample group/absorbance in control\nAccordingly, the smaller value is better in the cell damaging rate."}, "[2]": {"test_system": "isolated gastric fundic gland", "experiment": "CAP: Acid Secretion Inhibition Test In Vitro ([14C]-aminopyrine uptake test)", "type": "cell-based, Japanese White rabbit", "settings": "10^-5 M, histamine 10^-5 M, 37° C.; for inhibition at 10 µM: Oryctolagus cuniculus, 40 min, read-out: CAP: acid secretion inhibitory rate", "experimental": "CAP: Acid Secretion Inhibition Test In Vitro\nThe acid secretion inhibitory activity in a cell level is studied. It can also be used for studying the mechanism of the effect. […]\nii-a) Preparation of isolated gastric fundus gland suspension\nFirst, an isolated gastric fundic gland sample was prepared. Namely, a male Japanese White rabbit (2.5 to 3 kg) was anesthetized to death with Nembutal™ and then the abdomen was incised. Immediately thereafter, the stomach was removed and, after its pyloric and cardiac antrum were severed, incised along its greater curvature into two sheets. The gastric contents adhering to the mucosal surface was washed out with ice-cooled PBS (-) and then carefully washed therein. The gastric wall was spread on a cork board with its mucosal surface facing up and the feed and mucus thereon were completely removed with sterile gauze. The mucosa was separated therefrom by a spatula and then collected in ice-cooled PBS (-). After being washed twice with PBS (-), the mucosa was minced into 2-3 mm^3 pieces by scissors. These pieces were further washed twice with a nutrient solution. The nutrient solution comprises 132.4 mM of NaCl, 5.4 mM of KCl, 5 mM of Na2 HPO4. 12H2 O, 1 mM of NaH2 PO4. 2H2 O, 1.2 mM of MgSO4, 1 mM of CaCl 2, 25 mM of HEPES, 2 mg/ml of glucose, and 1 mg/ml of BSA. Into 70 ml of the nutrient solution containing 1 mg/ml of collagenase, minced mucosal pieces were dispersed and intensely stirred in a conical flask with a stirrer at 37° C. for 40 to 60 minutes. During this period, 100% O2 was sprayed on the nutrient solution surface and the pH was appropriately measured such that it was immediately adjusted to pH 7.4, when the value was therebelow, with a base. The nutrient solution was added to the reaction solution so as to attain the total amount of about 200 ml. After being filtered through a mesh, the suspension was divisionally introduced into 50 ml centrifuge tubes and left for 15 minutes such that gastric fundic gland was deposited. The supernatant was repeatedly removed by an aspirator, dispersed in the nutrient solution, and then left such that the gastric fundic gland was washed three times. At this time, without using a pipette, the suspension was alternately introduced into two centrifuge tubes so as to effect dispersion. The number of cells was counted under microscope and adjusted to 1.6×10^6 cells/ml. […]\nii-b) [^14 C]-aminopyrine uptake test\nThen, [^14 C]-aminopyrine uptake test was performed. After an Eppendorf tube was weighed, 10 μl (final concentration: 10^-5 M) of histamine dissolved in the above-mentioned nutrient solution, 10 μl (final concentration: 10^-5 M) of the test compound dissolved in DMSO, and 10 μl (final concentration: 0.05 μCi/ml) of [^14 C]-aminopyrine diluted with the nutrient solution were introduced therein and then 970 μl of the isolated gastric fundic gland suspension prepared above was added thereto. Subsequently, this mixture was shaken at 37° C. for 40 minutes at 125 cycles/minute. After being centrifuged for 30 minutes, 200 μl of its supernatant was collected into a mini-vial, while the rest was removed by an aspirator. The gland pellet was completely dried as the tube with its lid being opened was kept for one night in a drying oven at 80° C. and then the lid was closed and the weight was determined at room temperature. Then 100 μl of 1N KOH was added thereto and the tube with its lid being closed was treated at 60° C. for 1 to 2 hours so as to dissolve the pellet. Then, the contents thereof were transferred to a mini-vial. Into the mini-vial containing the supernatant or gland pellet, 4 ml of Atomlite™ was added and then the radioactivity was measured by a liquid scintillation counter. Here, after the radioactivity of the gland pellet was corrected by using a sample in which 20 mM of NaSCN was added so as to cancel the hydrogen ion concentration gradient, the integration ratio of aminopyrine specifically trapped by the gland pellet was calculated. […]"}, "[3]": {"test_system": "stress ulcer formation (rats)", "experiment": "WIS: Restraint and Water Immersion Stress-Induced Ulcer Inhibition Test", "type": "in vivo, rat (male Crj:SD or Slc:SD)", "settings": "rat, 100 mg/kg, oral, 7 hours water immersion stress", "experimental": "WIS: Restraint and Water Immersion Stress-Induced Ulcer Inhibition Test\nThe degree of inhibition of the stress ulcer formation is tested.\nMale Crj:SD or Slc:SD rats (6 to 7-week-old) were fasted overnight, but allowed free access to water. Each group has 5 to 8 of these rats. […] To a control group, the vehicle was administered. 10 minutes later, the rats were placed in a stress cage and immersed to the level of xipfoid process in a water bath (21° C.) for 7 hours. At the end of the stress, the rats were sacrificed by inhalation of ether or carbon dioxide. Then, the stomach of each was removed, inflated by injecting 10 ml of 5% formalin neutral buffer solution, and immersed in 1% formalin neutral buffer solution for 30 minutes or more to be fixed. The stomach was incised along the greater curvature and then the length of each erosion in the glandular portion was determined under dissecting microscope. The sum of the length of erosions per stomach was defined as ulcer index (UI).\nThe effect obtained when 100 mg/kg of the sample compound had been administered was expressed as ulcer formation inhibitory rate (%) as follows:\nulcer formation inhibitory rate (%)=(1-(UI in sample group/UI in control"}, "mice": {"test_system": "mice", "settings": "mouse, in vivo", "procedure": "AT: Single Dose Toxicity Pretest\nMale Slc:ICR mice (5-week-old) were used. Each group has 3 to 5 mice and each mouse was fasted, but allowed free access to water, for 4 to 5 hours from 9 a.m. in the test day. Then, 2,000 mg/10 ml/kg of the sample compound dissolved or suspended in an aqueous solution of 0.5% sodium carboxymethyl cellulose was orally administered thereto. To a control, only the vehicle was administered. […] The body weight was measured before and after the fasting as well as at the same time everyday. The dead animals were immediately subjected to autopsy and their organs were observed microscopically. Also, the living animals were sacrificed with ether or carbon dioxide one week after the administration and then their organs were observed microscopically.\nThe toxicity at the single dose of 2,000 mg/kg of the sample compound was expressed as being classified into 5 levels.\n5: Mortality rate is 0%; no toxicity is found at all both in behavior and organs.\n4: Mortality rate is 0%; while no toxicity is found in organs, slight toxicity is observed in behavior and body weight increase.\n3: While there is a dead animal (though not all the animals are dead), no toxicity is found in organs.\n2: Regardless of whether there is a dead animal or not, toxicity is found in organs.\n1: All the animals are dead."}, "[4]": {"test_system": "gastric acid secretion (pylorus-ligated, histamine-stimulated rats)", "experiment": "VOL, TAO: Acid Secretion Inhibition Test In Vivo", "set-up": "species or system rat (male Crj:Donryu)", "settings": "rat, 100 mg/kg, oral; histamine 30 mg/kg s.c.", "experimental": "VOL, TAO: Acid Secretion Inhibition Test In Vivo\nInhibitory effect on acid secretion in vivo is confirmed.\nMale Crj:Donryu rats (7-week-old) were fasted overnight but allowed free access to water. In each group, 8 to 10 of these rats were used under urethane anesthesia (1.25 g/kg). […] 30 minutes later, the abdomen of each was incised and the pylorus was ligated. 30 minutes after the ligation, 30 mg/kg of histamine dissolved in physiological saline was subcutaneously administered and, 3 hours thereafter, the rat was sacrificed with carbon dioxide. Immediately thereafter, each stomach was removed and the gastric contents were collected and each volume was determined. The total acid output was determined by titration of the gastric juice with 0.1N NaOH.\nWith respect to the gastric juice volume (VOL) and the total acid output (TAO), the effects obtained when 100 mg/kg of the sample compound had been administered were expressed as their respective inhibitory rates (%) as follows:\neach inhibitory rate (%)=(1-(value in sample group/value in control"}, "gastric mucosa": {"test_system": "gastric mucosa", "experiment": "PD: Gastric Mucosal Integrity Test", "type": "in vivo, rat (male CDj:SD)", "set-up": "key: 5: Same as the control with no recognizable damage at all.; 4: Though a slight PD-decreasing tendency suggesting a slight possibility of mucosal damage is found, there is no problem.; 3: Though a weak decrease in PD and a possibility of a weak mucosal damage is recognized, there is no substantial problem.; 2: Medium degree of decrease in PD is found and a mucosal damage is recognized.; 1: Heavy degree of decrease in PD is found and a remarkable mucosal damage is recognized", "settings": "rat, 100 mg/kg into chamber, 60 minutes", "experimental": "PD: Gastric Mucosal Integrity Test\nIn this case, since the sample compound has a necrotizing effect, it is inappropriate as an anti-ulcer medicament.\nTherefore, the gastric mucosal potential difference (PD), which reflects the integrity of the gastric mucosa, is measured so as to confirm that the sample compound has no damaging effect on gastric mucosa, which is toxicity at gastric mucosal level.\nMale CDj:SD rats (7 to 8-week-old) were fasted overnight, but allowed free access to water, and then, under urethane anesthesia (1.25 g/kg, i.p.), fixed to a cork board on its back. The abdomen of each rat was incised, and a small incision was made in the forestomach. Then, the inside of the stomach was washed with physiological saline heated at 37° C. From the forestomach, along the greater curvature thereof, the stomach was incised without damaging blood vessels. After the height of the cork board was adjusted on a jack, the stomach was mounted on ex vivo chamber. The area of the gastric mucosa exposed to the inside of this chamber was 2.5 cm^2. The inside of the chamber was perfused with physiological saline warmed at 37° C. by micro tube pump. By using an agar bridge containing 3M KCl, the potential difference between the chamber and the abdominal cavity was measured by a PD meter. Here, the rectal temperature was measured to control the body temperature during the experiment. […] To a control, the vehicle was administered.\nThe change in PD during 60 minutes after the administration of 100 mg/kg of the sample compound was collectively studied and, with reference to the positive control, classified into 5 levels as follows:\n5: Same as the control with no recognizable damage at all.\n3: Though a weak decrease in PD and a possibility of a weak mucosal damage is recognized, there is no substantial problem.\n2: Medium degree of decrease in PD is found and a mucosal damage is recognized.\n1: Heavy degree of decrease in PD is found and a remarkable mucosal damage is recognized."}}, "data": [{"smiles": "CC(C)=CCC/C(C)=C/COc1ccc(OC/C=C(\\C)CCC=C(C)C)c(C(=O)NCCc2ccncc2)c1", "note": "[Example 5, 4-[2-(2,5-digeranyloxybenzoylamino)ethyl]pyridine]", "values": [{"measurement": "cytotoxicity at 4 h, 100 µM", "setting": "[1]", "value": -17, "unit": "%"}, {"measurement": "inhibition at 10 µM", "setting": "[2]", "value": 99, "unit": "%"}, {"measurement": "WIS: ulcer formation inhibitory rate", "setting": "[3]", "value": 35, "unit": "%"}]}, {"smiles": "COc1ccc(NCCNC(=O)c2ccc(OC/C=C(\\C)CCC=C(C)C)cc2)cn1", "note": "[Example 9, 3-[2-(4-geranyloxybenzoylamino)ethylamino]-6-methoxypyridine]", "values": [{"measurement": "cytotoxicity at 4 h, 100 µM", "setting": "[1]", "value": 8, "unit": "%"}, {"measurement": "inhibition at 10 µM", "setting": "[2]", "value": 77, "unit": "%"}, {"measurement": "WIS: ulcer formation inhibitory rate", "setting": "[3]", "value": 42, "unit": "%"}]}, {"smiles": "CC(C)=CCC/C(C)=C/COc1ccc(C(=O)NCCSc2ccc(C(F)(F)F)cn2)cc1", "note": "[Example 12, 2-[2-(4-geranyloxybenzoylamino)ethylthio]-5-trifluoromethylpyridine]", "values": [{"measurement": "AT: toxicity at the single dose (5 levels)", "setting": "mice", "value": 5}, {"measurement": "TAO: total acid output inhibitory rate", "setting": "[4]", "value": -10, "unit": "%"}, {"measurement": "VOL: gastric juice volume inhibitory rate", "setting": "[4]", "value": -5, "unit": "%"}, {"measurement": "cytotoxicity at 4 h, 100 µM", "setting": "[1]", "value": -14, "unit": "%"}, {"measurement": "PD: change in gastric mucosal potential difference (5 levels)", "setting": "gastric mucosa", "value": 5}, {"measurement": "WIS: ulcer formation inhibitory rate", "setting": "[3]", "value": 37, "unit": "%"}]}, {"smiles": "CC(C)Cc1cc(C(=O)NCCc2ccncc2)ccc1OCc1ccc(F)cc1", "note": "[Example 14, 4-[2-[4-(4-fluorobenzyloxy)-3-isobutylbenzoylamino]ethyl]pyridine]", "values": [{"measurement": "AT: toxicity at the single dose (5 levels)", "setting": "mice", "value": 4}, {"measurement": "inhibition at 10 µM", "setting": "[2]", "value": 97, "unit": "%"}, {"measurement": "WIS: ulcer formation inhibitory rate", "setting": "[3]", "value": 91, "unit": "%"}]}, {"smiles": "CC(C)Cc1cc(C(=O)NCCc2ccncc2)ccc1OCc1ccc(F)cc1.Cl", "note": "[Example 15, 4-[2-[4-(4-fluorobenzyloxy)-3-isobutylbenzoylamino]ethyl]pyridine hydrochloride]", "values": [{"measurement": "CAP: acid secretion inhibitory rate", "setting": "[2]; 40 minutes", "value": 95.1, "unit": "%"}, {"measurement": "WIS: ulcer formation inhibitory rate", "setting": "[3]", "value": 86, "unit": "%"}]}]}
